# PMC5748433, “Study on the effect of EMD386088, a 5-HT6 receptor partial agonist, in enhancing the anti-immobility action of some antidepressants in rats” (Naunyn-Schmiedeberg's Archives of Pharmacology, 2017)
# Read-outs that look alike come from different tables or passages of the source.
# Legend:
# [1] = Pharmacokinetic study in rats, plasma (LC/MS/MS, non-compartmental); assay type: in vivo, rat; details: for Vd/F / AUC(0-t) / CL/F / Cmax / MRT / half-life / Tmax: rat, plasma
# Description: Blood samples were collected at 0 min (predose), 5 min, 15 min, 30 min, 60 min, 120 min, and 240 min after injections. The blood was collected from right ventricle under anesthesia using a mixture of ketamine (50 mg/kg)/xylasine (8 mg/kg) in the ratio of 3:1, and 0.025 mL of a mixture for 10 g body weight was injected i.p. 10 min before planned blood collection. Blood and brain samples were collected under general anesthesia induced by i.p. injections of ketamine (50 mg/kg)/xylasine (8 mg/kg). The blood samples were taken into heparinized tubes, immediately centrifuged at 3500 rpm for 10 min, and plasma was collected. After the blood was drawn, the rat’s spinal cord was cut and the cerebral tissue was removed, and after dissection washed in PBS saline. The brain and plasma samples were immediately frozen at − 80 °C for LC/MS/MS analysis.
# Pharmacokinetic parameters were calculated by a non-compartmental approach from the average concentration values, using Phoenix WinNonlin software (Certara, Princeton, NJ 08540 USA). First order elimination rate constant (λz) was calculated by linear regression of time versus log concentration.
# The quantification of studied compounds in plasma and brain samples was done using HPLC Agilent 1100 system (Agilent Technologies, Waldbronn, Germany) coupled to the triple quadrupole mass spectrometer API 2000 (ABSciex, Framingham, Massachusetts, USA) equipped with an electrospray ion source. After preparation, the samples were injected (20 μL) onto XBridge C18 (2.1 mm × 30 mm, 3.5 μm, Waters, Milford, Massachusetts, USA) analytical column. The mobile phase consisted of ACN with 0.1% formic acid (A) and water with 0.1% formic acid (B) were delivered in gradient elution started with 90% of eluent B, increasing during 2 min to 90% of eluent A, maintained to 3 min, and then returned during 5 min to 90% of eluent B, and maintained 90% of eluent B during 5 min at a flow rate of 300 μL/min. The total time of analysis was 15 min. Electrospray ionization process was performed in positive ionization and the data acquisition was carried out in multiple reaction monitoring mode (MRM) for EMD386088 and its internal standard (nebivolol). The ion spray source settings were as follows: spray voltage: 5 kV, heater temperature: 350 °C, curtain gas: 15 psi, source gas 1: 35 psi, source gas 2: 10 psi. The ions measured were m/z 247.3 (Q1) and m/z 168.2 (Q3) for EMD386088, and m/z 406.2 (Q1) and m/z 151.1 (Q3) for IS.
# A sample volume of 50 μL of plasma or brain homogenate was transferred into the clean Eppendorf tube and spiked with 5 μL of IS solution (1 μg/mL) obtaining the final concentration of 100 ng/mL. After 5 min of mixing (1500 rpm), proteins were precipitated using 150 μL ACN. After 10 min of samples shaking (1500 rpm), the incubation step was performed (10 min, 4 °C). Next, samples were centrifuged (10,000 rpm, 10 min, 4 °C) and the supernatant was transferred into chromatographic vial for LC/MS/MS analysis. The brain homogenate was prepared maintaining the tissue: phosphate-buffered saline (PBS) at a ratio of 1:5. The homogenization was carried out employing IKA® T10 Basic ULTRA-TURRAX disperser (IKA Werke GmbH & Co. KG, Staufen, Germany). After homogenization, 50 μL of sample was collected for further preparation. All samples were stored on ice during the preparation process.
# [2] = Metabolic stability in rat liver microsomes (RLMs); assay type: in vitro ADME
# Description: The in silico study was performed by MetaSite 5.1.1 provided by Molecular Discovery Ltd. The highest metabolism probability sites and the prediction of the structures of metabolites were analyzed during this study by liver computational model (Cruciani et al. [2005]).
# Commercial, pooled, rat liver microsomes (RLMs) were purchased from Sigma-Aldrich (St. Louis, USA). The biotransformations were carried out using 1 mg/mL of RLMs in 200 μL of reaction buffer containing 0.1 M Tris-HCl (pH 7.4) and EMD386088 with final […] 50 μM. The reaction mixture was preincubated at 37 °C for 5 min and then, the reaction was initiated by adding 50 μL of NADPH Regeneration System (Promega, Madison, WI, USA). The reaction was terminated after 30 or 120 min by the addition of 200 μL of cold methanol. The mixture was next centrifuged at 14000 rpm for 15 min and the UPLC/MS analysis of the supernatant was performed. Mass spectra was recorded on UPLC/MS system consisted of a Waters Acquity UPLC (Waters, Milford, USA), coupled to a Waters TQD mass spectrometer (electrospray ionization mode ESI-tandem quadrupole).
# recombinant human CYP2D6 = target: T1, recombinant human CYP2D6 (Homo sapiens, UniProt P10635); experiment: Luminescent CYP2D6 P450-Glo assay; assay type: in vitro ADME; details: read-out: IC 50 CYP2D6
# T1 construct: purchased Promega (Madison, WI, USA)
# Description: The enzymatic reactions were performed in white polystyrene, flat-bottom Nunc™ MicroWell™ 96-Well Microplates (Thermo Scientific, Waltham, MA USA). The luminescence signal was measured with a microplate reader in luminescence mode (EnSpire, PerkinElmer, Waltham, MA USA).
# rats = tested on: rats; parameters: method as in Jastrzębska-Więsek et al. [2015]; details: EMD386088 alone 5 mg/kg i.p., ref Jastrzębska-Więsek et al. [2015]; cited from earlier work
# α1-adrenoceptors = tested on: α1-adrenoceptors; parameters: method as in Jastrzębska-Więsek et al. [2013]; details: ref Jastrzębska-Więsek et al. [2013]; cited from earlier work
# dopamine D3 = tested on: dopamine D3; parameters: method as in Jastrzębska-Więsek et al. [2013]; details: ref Jastrzębska-Więsek et al. [2013]; cited from earlier work
# [3] = tested on: serotonin (5-HT) transporter; parameters: method as in Jastrzębska-Więsek et al. [2013]; details: ref Jastrzębska-Więsek et al. [2013]; cited from earlier work
# [4] = tested on: dopamine transporter (DAT); parameters: method as in Jastrzębska-Więsek et al. [2016]; details: functional in vitro study; ref Jastrzębska-Więsek et al. [2016]; cited from earlier work
# [5] = ip, 2.5 mg/kg, rat plasma, EMD386088 2.5 mg/kg i.p. alone
# [6] = ip, 2.5 mg/kg, rat plasma, EMD386088 2.5 mg/kg i.p. jointly with imipramine (IMI) 15 mg/kg i.p.
# [7] = ip, 5 mg/kg, rat plasma, EMD386088 5 mg/kg i.p. alone
# [8] = rats, EMD386088 with imipramine vs alone
# T1 sequence (P10635 whole entry): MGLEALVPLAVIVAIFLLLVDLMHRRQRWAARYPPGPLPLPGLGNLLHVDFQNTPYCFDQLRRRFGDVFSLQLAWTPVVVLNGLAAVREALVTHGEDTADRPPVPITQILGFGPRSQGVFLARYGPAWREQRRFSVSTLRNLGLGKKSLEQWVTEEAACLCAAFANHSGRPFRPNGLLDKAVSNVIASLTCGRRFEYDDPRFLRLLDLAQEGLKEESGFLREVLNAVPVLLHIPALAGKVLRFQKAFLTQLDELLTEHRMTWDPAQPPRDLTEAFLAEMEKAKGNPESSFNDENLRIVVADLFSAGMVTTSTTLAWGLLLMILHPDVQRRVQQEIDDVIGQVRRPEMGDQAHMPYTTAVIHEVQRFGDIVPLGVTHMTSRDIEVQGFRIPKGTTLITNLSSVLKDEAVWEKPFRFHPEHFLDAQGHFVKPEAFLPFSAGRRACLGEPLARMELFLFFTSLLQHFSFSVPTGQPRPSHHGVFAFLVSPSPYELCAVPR
smiles,measurement,setting,value
"Cc1[nH]c2ccc(Cl)cc2c1C1=CCNCC1.Cl [EMD386088, 5-chloro-2-methyl-3-(1,2,3,6-tetrahydro-4-pyridinyl)-1H-indole hydrochloride]",Vd/F,"[1]; intraperitoneal, rats, EMD386088 2.5 mg/kg coadministered with imipramine 15 mg/kg, read-out: volume of distribution V d/F",32.2 L/kg
same,AUC(0-t),[1]; [5],36.8 ng·h/mL
same,CL/F,[1]; [5],1050 mL/min/kg
same,Cmax,[1]; [5],22.9 ng/mL
same,MRT,[1]; [5],1.31 h
same,Vd/F,"[1]; ip, 2.5 mg/kg, rat plasma, EMD386088 2.5 mg/kg i.p. alone, read-out: V d/F",102 L/kg
same,half-life,"[1]; ip, 2.5 mg/kg, rat plasma, EMD386088 2.5 mg/kg i.p. alone, read-out: t1/2",1.12 h
same,Tmax,"[1]; ip, 2.5 mg/kg, rat plasma, EMD386088 2.5 mg/kg i.p. alone, read-out: t max (converted)",0.0833 h
same,AUC(0-t),[1]; [6],125 ng·h/mL
same,CL/F,[1]; [6],289 mL/min/kg
same,Cmax,[1]; [6],49 ng/mL
same,MRT,[1]; [6],1.55 h
same,Vd/F,"[1]; ip, 2.5 mg/kg, rat plasma, EMD386088 2.5 mg/kg i.p. jointly with imipramine (IMI) 15 mg/kg i.p., read-out: V d/F",32.2 L/kg
same,half-life,"[1]; ip, 2.5 mg/kg, rat plasma, EMD386088 2.5 mg/kg i.p. jointly with imipramine (IMI) 15 mg/kg i.p., read-out: t1/2",1.28 h
same,Tmax,"[1]; ip, 2.5 mg/kg, rat plasma, EMD386088 2.5 mg/kg i.p. jointly with imipramine (IMI) 15 mg/kg i.p., read-out: t max (converted)",1 h
same,AUC(0-t),[1]; [7],75.5 ng·h/mL
same,CL/F,[1]; [7],1040 mL/min/kg
same,Cmax,[1]; [7],45.2 ng/mL
same,MRT,[1]; [7],1.3 h
same,Vd/F,"[1]; ip, 5 mg/kg, rat plasma, EMD386088 5 mg/kg i.p. alone, read-out: V d/F",97.1 L/kg
same,half-life,"[1]; ip, 5 mg/kg, rat plasma, EMD386088 5 mg/kg i.p. alone, read-out: t1/2",1.08 h
same,Tmax,"[1]; ip, 5 mg/kg, rat plasma, EMD386088 5 mg/kg i.p. alone, read-out: t max (converted)",0.0833 h
same,half-life,"[1]; ip, 5 mg/kg, rats, EMD386088 alone (2.5 and 5 mg/kg) i.p., read-out: t 1/2 (terminal half-life)",1.12 h
same,Tmax,"[1]; ip, 5 mg/kg, rats, EMD386088 alone (2.5 and 5 mg/kg) i.p., read-out: t max (time to maximum concentration in the blood) (converted)",0.0833 h
same,Vd/F,"[1]; ip, rats, EMD386088 alone i.p., read-out: volume of distribution V d/F",102 L/kg
same,change of area under the concentration-time curve (AUC) on coadministration with imipramine,[1]; [8],increased three times
same,change of volume of distribution on coadministration with imipramine,[1]; [8],decreased three times
same,compound metabolized in the presence of RLMs,"[2]; RLMs 1 mg/mL, EMD386088 50 μM, after 120 min, 37 °C",~40%
same,main metabolic pathway,[2]; in silico (MetaSite) and in vitro (RLMs) studies,dehydrogenation of tetrahydropyridine moiety
same,IC50,recombinant human CYP2D6,2250 nM
same,antidepressant-like effect in the FST,rats,exerts an antidepressant-like effect
same,affinity for α1-adrenoceptors,α1-adrenoceptors,no affinity
same,affinity for dopamine D3,dopamine D3,no affinity
same,affinity for serotonin (5-HT) transporter,[3],no affinity
same,affinity for dopamine transporter (DAT),[4],significant affinity
